Earlier results as cited in patent EP0409862B1, “TOPICAL PREPARATIONS” (Seton Healthcare Group plc, priority 1988, dated 1989).

solubility in various organic liquids such as alcohols: soluble
solubility in water (fine powder): essentially insoluble
Structure (SMILES): COC1=CC(=O)C[C@@H](C)[C@]12Oc1c(Cl)c(OC)cc(OC)c1C2=O [Griseofulvin]
